Experimental data published in patent US20040198828A1, “Combinational use of long-acting and short-acting anti-histamines for ocular allergies” (priority 2003, published 2004).

System: eyes of allergic subjects challenged with allergen solution (birch, cat hair, cat dander)
Experiment: Conjunctival allergen challenge (CAC), onset of action and duration of action study
Format: in vivo, human
Settings: for Mean Differences (Active-Placebo), 15 Min Itching, Timepoint 1 / Mean Differences (Active-Placebo), 15 Min Itching, Timepoint 2 / Mean Differences (Active-Placebo), 15 Min Itching, Timepoint 3 / Mean Differences (Active-Placebo), 15 Min Redness, Timepoint 1 / Mean Differences (Active-Placebo), 15 Min Redness, Timepoint 2 / Mean Differences (Active-Placebo), 15 Min Redness, Timepoint 3: challenge 15 min after one drop; for Mean Differences (Active-Placebo), 16 hr Itching, Timepoint 1 / Mean Differences (Active-Placebo), 16 hr Itching, Timepoint 2 / Mean Differences (Active-Placebo), 16 hr Itching, Timepoint 3 / Mean Differences (Active-Placebo), 16 hr Redness, Timepoint 1 / Mean Differences (Active-Placebo), 16 hr Redness, Timepoint 2 / Mean Differences (Active-Placebo), 16 hr Redness, Timepoint 3: challenge 16 hr after one drop
Protocol: These following studies were performed using the standard conjunctival allergen challenge model as described in Abelson et al., Arch Ophthalmol. 108(1): 84-88 (1990), and Abelson et al., Curr Allergy Asthma Rep. 3(4): 363-8 (2003). Each experiment was a double-masked, contralateral placebo controlled, single center, onset of action and duration of action allergen challenge study.
A baseline ocular exam was performed to rule out any subjects with any ocular surface anomaly that would interfere with evaluations. A bilateral conjunctival allergen challenge was performed with the allergen to which the subject was known to be allergic to as evidenced by a skin test or previous conjunctival allergen challenge.
Subjects were administered one drop of masked study medication in each eye as described in the below tables (see Table 1-3). A period of at least 1 week was left between experiments on each single subject. At the specified timepoints, subjects were challenged bilaterally with one drop of allergen solution (allergen used were birch, cat hair, cat dander) at a concentration that was known to historically elicit a positive response (Abelson et al., Arch Ophthalmol. 108(1): 84-88 (1990)). Phosphate buffered saline (PBS) was used as placebo. A historic positive response to the challenge was defined as at least a +2.0 itching and +2.0 redness on scales 0-4, with 0 being none and 4 being severe.
Subjects were asked to grade their ocular itching on standardized scales described in Abelson et al., Arch Ophthalmol. 108(1): 84-88 (1990), scoring was performed from a scale of 0-4 at 3, 5, and 7 minutes post-challenge. Redness was graded by a masked observer on standardized scales 0-4 at 10, 15, and 20 minutes post-challenge. Digital photographs were taken of each eye at the 15 minute timepoint. If needed, subjects were administered one drop of a currently marketed topical anti-allergic medication (Naphcon A™: pheniramine maleate 0.3%/naphthazoline hydrochloride 0.025% ophthalmic solution) to relieve any immediate discomfort at the end of the visit.
Data from all subjects who completed any post-challenge examination was evaluable for that experiment and treatment. Mean itching and redness scores were compared between the treated eye and placebo eye to determine an efficacy score.

[1] = itching scale 0-4, timepoint 1 of 3, 5, 7 min post-challenge
[2] = itching scale 0-4, timepoint 2 of 3, 5, 7 min post-challenge
[3] = itching scale 0-4, timepoint 3 of 3, 5, 7 min post-challenge
[4] = redness scale 0-4, timepoint 1 of 10, 15, 20 min post-challenge
[5] = redness scale 0-4, timepoint 2 of 10, 15, 20 min post-challenge
[6] = redness scale 0-4, timepoint 3 of 10, 15, 20 min post-challenge

| SMILES | Mean Differences (Active-Placebo), 15 Min Itching, Timepoint 1 [1] | Mean Differences (Active-Placebo), 15 Min Itching, Timepoint 2 [2] | Mean Differences (Active-Placebo), 15 Min Itching, Timepoint 3 [3] | Mean Differences (Active-Placebo), 15 Min Redness, Timepoint 1 [4] | Mean Differences (Active-Placebo), 15 Min Redness, Timepoint 2 [5] | Mean Differences (Active-Placebo), 15 Min Redness, Timepoint 3 [6] | Mean Differences (Active-Placebo), 4 hr Itching, Timepoint 1 (challenge 4 hr after one drop, itching scale 0-4, timepoint 1 of 3, 5, 7 min post-challenge) | Mean Differences (Active-Placebo), 4 hr Itching, Timepoint 2 (challenge 4 hr after one drop, itching scale 0-4, timepoint 2 of 3, 5, 7 min post-challenge) | Mean Differences (Active-Placebo), 4 hr Itching, Timepoint 3 (challenge 4 hr after one drop, itching scale 0-4, timepoint 3 of 3, 5, 7 min post-challenge) | Mean Differences (Active-Placebo), 4 hr Redness, Timepoint 1 (challenge 4 hr after one drop, redness scale 0-4, timepoint 1 of 10, 15, 20 min post-challenge) | Mean Differences (Active-Placebo), 4 hr Redness, Timepoint 2 (challenge 4 hr after one drop, redness scale 0-4, timepoint 2 of 10, 15, 20 min post-challenge) | Mean Differences (Active-Placebo), 4 hr Redness, Timepoint 3 (challenge 4 hr after one drop, redness scale 0-4, timepoint 3 of 10, 15, 20 min post-challenge) | Mean Differences (Active-Placebo), 16 hr Itching, Timepoint 1 [1] | Mean Differences (Active-Placebo), 16 hr Itching, Timepoint 2 [2] | Mean Differences (Active-Placebo), 16 hr Itching, Timepoint 3 [3] | Mean Differences (Active-Placebo), 16 hr Redness, Timepoint 1 [4] | Mean Differences (Active-Placebo), 16 hr Redness, Timepoint 2 [5] | Mean Differences (Active-Placebo), 16 hr Redness, Timepoint 3 [6] |
| --- | --- | --- | --- | --- | --- | --- | --- | --- | --- | --- | --- | --- | --- | --- | --- | --- | --- | --- |
| c1ccc(CN(CC2=NCCN2)c2ccccc2)cc1 [Antazoline 0.5%, antazoline] | −2.33 | −2.83 | −2.5 | −0.83 | −0.83 | −1.00 | – | – | – | – | – | – | – | – | – | – | – | – |
| CN1CCCC(n2nc(Cc3ccc(Cl)cc3)c3ccccc3c2=O)CC1 (stereo not drawn) [Azelastine 0.05%, azelastine] | −2.5 | −2.5 | −2.5 | 0 | 0 | 0 | −0.5 | −1.0 | −1.0 | +0.5 | +1.0 | +1.0 | – | – | – | – | – | – |
| CN1CCC(=C2c3ccccc3CC(=O)c3sccc32)CC1 [Keto 0.05%, ketotifen] | −2.00 | −2.33 | −2.00 | −1.50 | −1.17 | −1.50 | – | – | – | – | – | – | 0.75 | 0.25 | 0.25 | 0.5 | 0.5 | 0.25 |
| CN(C)CCC(c1ccccc1)c1ccccn1 (stereo not drawn) [Pheniramine 0.5%, pheniramine] | −2.67 | −2.33 | −2.17 | −1.67 | −1.83 | −1.67 | – | – | – | – | – | – | −0.25 | 0 | 0 | 0.25 | 0.25 | 0.25 |
